In US20200061090A1, “AGENT FOR PREVENTING WORSENING OF INSULIN RESISTANCE OR AMELIORATING INSULIN RESISTANCE” (B FOOD SCIENCE CO., LTD., priority 2017, published 2020):

What was measured:
[1] = Food processing and ingredients, Vol. 49, No. 12, p. 9, 2014; cited from earlier work
[2] = tested on: SD rats; test: Effects of 1-kestose on rats taking a high-fat diet (obese model) or ordinary diet: plasma insulin, blood glucose, body weight; type: in vivo, rat; details: for Plasma insulin level / Blood glucose level: 135 days; for Plasma insulin level / Blood glucose level / Body weight: average ± SD; for Body weight: end of breeding period (19 weeks)
Protocol: SD rats (Japan SLC, Inc.) were divided into 4 groups of 6 to 8 rats each to be Group A to Group D. During the breeding period, Group A and Group C had discretionary intake of tap water. On the other hand, Group B and Group D were allowed to take 1-kestose by providing discretionary intake of a solution in which 1-kestose was dissolved in purified water in such a way as to be 2 mass %. Additionally, Group A and Group B had discretionary intake of […] (Research Diets, Inc.) as an “ordinary diet”, and Group C and Group D had discretionary intake of D12492 (Research Diets, Inc.) as a “high-fat diet”. The rats were bred for 135 days with the same breeding conditions as Example 1 (1) except feed. The composition of feed is shown below.
(§1) Casein: 200, L-cystine: 3, Cornstarch: 506.2, maltodextrin 10: 125, sucrose: 68.8, cellulose BW200: 50, purified soybean oil: 25, lard: 20, mineral mix S10026: 10, dicalcium phosphate: 13, calcium carbonate: 5.5, potassium citrate monohydrate: 16.5, vitamin mix V10001: 10, choline bitartrate: 2, yellow synthetic dye (FD&C Yellow Dye #1): 0.04, blue synthetic dye (FD&C Blue Dye #1): 0.01.
as §1, with “3,” for “3, Cornstarch: 506.2,”, “245,” for “20,”, “2,” for “2, yellow synthetic dye (FD&C Yellow Dye #1): 0.04,”, “0.05.” for “0.01.”
As the average intake amount of water taken by a rat per day was about 22 mL/rat.
The rats of each Group in this Example 2 (1) were measured for body weight every week during the breeding period, and an average value by each Group was calculated and expressed in line graphs. Note that the body weights (g) of each Group at the start of breeding period were 272±5 for Group A, 268±6 for Group B, 272±3 for Group C, and 269±3 for Group D.
Further, plasma insulin levels and blood glucose levels were measured by the method described in Example 1 (2) to calculate an average value and a standard deviation by each Group. […] Additionally, insulin levels and glucose levels are shown in FIG. 4 and FIG. 5 in bar graphs, respectively.

[3] = tested on: SD rats; test: Effect of 1-kestose on rats taking an ordinary diet (healthy model): serum insulin and blood glucose; type: in vivo, rat; details: for Serum insulin level / Blood glucose level: average ± SD; for Serum insulin level: Group A control 4.34 ± 0.51; for Blood glucose level: Group A control 207 ± 11
Protocol: Feed containing 1-kestose in such a way as to be 0, 0.5, 1, 2.5 and 5 mass % was prepared by CLEA Japan, Inc. on commission. The composition of feed is shown below.
Cornstarch: 39.7486, milk casein: 20, pregelatinized cornstarch: 13.2, granulated sugar or granulated sugar and 1-kestose: 10, purified soybean oil: 7, cellulose powder: 5, mineral mix: 3.5, vitamin mix: 1, L-cystine: 0.3, choline bitartrate: 0.25, tertiary butyl hydroquinone: 0.0014.
Forty SD rats (Japan SLC, Inc.) were divided into 5 groups of 8 rats each to be Groups A to E. Group A and Groups B to E had discretionary intake of feed without 1-kestose and 1-kestose-containing feed, respectively, while bred for 30 days. Breeding conditions included a temperature of 23±1° C., a light period of 12 hours (8:00 to 20:00) and a dark period of 12 hours (20:00 to 8:00).
The obtained serum was measured for an insulin level by ELISA technique and a glucose level by glucose oxidase method, to calculate an average value and a standard deviation by each Group. Additionally, serum insulin levels and blood glucose levels are shown in FIG. 1 and FIG. 2 in bar graphs, respectively.

[4] = tested on: OLETF (Otsuka Long-Evans Tokushima Fatty) rats; test: Effect of 1-kestose on type 2 diabetes model OLETF rats: plasma insulin and blood glucose; type: in vivo, rat; details: for Plasma insulin level / Blood glucose level: 14 days, average ± SD; for Plasma insulin level: Group C control 3.36 ± 0.53; for Blood glucose level: Group C control 151 ± 6
Protocol: (§2) OLETF (Otsuka Long-Evans Tokushima Fatty) rats (Japan SLC, Inc.), which are model animals with pathological conditions of type 2 diabetes, and LETO (Long-Evans Tokushima Otsuka) rats (Japan SLC, Inc.), which are the controls thereof, were prepared. The LETO rats were divided into 2 groups of 5 rats each to be Group A and Group B. Further, the OLETF rats were divided into 3 groups of 8 rats each to be Group C, Group D, and Group E. During the breeding period, Group A and Group C had discretionary intake of “feed without 1-kestose” described in Example 1 (1), Group B and Group E had discretionary intake of “feed containing 5 mass % of 1-kestose”, and Group D had discretionary intake of “feed containing 1 mass % of 1-kestose”. The rats were bred for 14 days with the same breeding conditions as Example 1 (1)
(§3) For the rats of each Group of this Example 3 (1), plasma insulin levels and blood glucose levels were measured by the method described in Example 1 (2) to calculate an average value and a standard deviation by each Group. Additionally, plasma insulin levels and blood glucose levels are shown in FIG. 6 and FIG. 7 in bar graphs, respectively.

[5] = tested on: LETO (Long-Evans Tokushima Otsuka) rats; test: Effect of 1-kestose on LETO control rats of the type 2 diabetes model: plasma insulin and blood glucose; type: in vivo, rat
Protocol: as §2, §3

[6] = Group C, feed containing 1% of 1-kestose (0.54 g/kg body weight daily), 30 days
[7] = Group D, feed containing 2.5% of 1-kestose (1.34 g/kg body weight daily), 30 days
[8] = Group E, feed containing 5% of 1-kestose (2.71 g/kg body weight daily), 30 days
[9] = OLETF rats, Group D, feed containing 1% of 1-kestose (table prints 1.34 g/kg body weight daily)
[10] = OLETF rats, Group E, feed containing 5% of 1-kestose (2.71 g/kg body weight daily)

## OC[C@H]1O[C@@](CO)(OC[C@@]2(O[C@H]3O[C@H](CO)[C@@H](O)[C@H](O)[C@H]3O)O[C@H](CO)[C@@H](O)[C@@H]2O)[C@@H](O)[C@@H]1O [1-kestose]
[1]
  Toxicity in mutagenicity test, acute toxicity test, subchronic toxicity test and chronic toxicity test: not recognized to have toxicity
[2]; Groups A to D, regardless of whether or not 1-kestose was taken
  Blood glucose levels compared among groups: equivalent blood glucose levels
[2]; High-fat diet, Group D vs Groups A and B, Group C notably higher
  Plasma insulin levels of rats taking the high-fat diet and 1-kestose compared with rats taking the ordinary diet: equivalent plasma insulin levels
[2]; High-fat diet, Group D, 2 mass % 1-kestose solution (0.44 g/rat daily), Group C tap water 6.65 ± 1.03
  Plasma insulin level: 2.28 ± 0.63 ng/mL
[2]; High-fat diet, Group D, 2 mass % 1-kestose solution (0.44 g/rat daily), Group C tap water 155 ± 4
  Blood glucose level: 147 ± 2 mg/dL
[2]; High-fat diet, Group D, 2 mass % 1-kestose solution (0.44 g/rat daily), Group C tap water 764 ± 32
  Body weight: 718 ± 21 g
[2]; Ordinary diet, Group B, 2 mass % 1-kestose solution (0.44 g/rat daily), Group A tap water 147 ± 5
  Blood glucose level: 143 ± 3 mg/dL
[2]; Ordinary diet, Group B, 2 mass % 1-kestose solution (0.44 g/rat daily), Group A tap water 665 ± 14
  Body weight: 679 ± 22 g
[2]; Ordinary diet, Group B, 2 mass % 1-kestose solution as drinking water (0.44 g/rat daily), Group A tap water 2.48 ± 0.52
  Plasma insulin level: 2.30 ± 0.42 ng/mL
[3]; Group B, feed containing 0.5% of 1-kestose (0.27 g/kg body weight daily), 30 days, n=8
  Serum insulin level: 3.04 ± 0.38 ng/mL
[3]; Group B, feed containing 0.5% of 1-kestose (0.27 g/kg body weight daily), 30 days
  Blood glucose level: 202 ± 10 mg/dL
[3]; [6]
  Serum insulin level: 3.08 ± 0.31 ng/mL
  Blood glucose level: 192 ± 11 mg/dL
[3]; [7]
  Serum insulin level: 2.56 ± 0.31 ng/mL
  Blood glucose level: 202 ± 4 mg/dL
[3]; [8]
  Serum insulin level: 2.01 ± 0.24 ng/mL
  Blood glucose level: 188 ± 7 mg/dL
[3]; Groups A to E, irrelevant to the intake amount
  Blood glucose levels compared with rats not taking 1-kestose: equivalent blood glucose levels
[3]; Groups B, C, D and E (0.5 to 5% 1-kestose in feed) vs Group A, 30 days
  Serum insulin levels compared with Group A (rats not taking 1-kestose): significantly lower
[4]; Group C>Group D>Group E
  Plasma insulin levels compared with OLETF rats not taking 1-kestose: lower plasma insulin levels
[4]; [9]
  Plasma insulin level: 3.04 ± 0.69 ng/mL
  Blood glucose level: 163 ± 4 mg/dL
[4]; [10]
  Plasma insulin level: 2.53 ± 0.29 ng/mL
  Blood glucose level: 157 ± 3 mg/dL
[4]; OLETF rats, regardless of whether or not 1-kestose was taken
  Blood glucose levels compared among groups: equivalent blood glucose levels
[5]; Group B vs Group A
  Plasma insulin levels compared with LETO rats not taking 1-kestose: lower plasma insulin levels
[5]; LETO rats, Group B, feed containing 5% of 1-kestose (2.71 g/kg body weight daily), 14 days, average ± SD, Group A control 1.49 ± 0.19
  Plasma insulin level: 1.08 ± 0.09 ng/mL
[5]; LETO rats, Group B, feed containing 5% of 1-kestose (2.71 g/kg body weight daily), 14 days, average ± SD, Group A control 146 ± 3
  Blood glucose level: 144 ± 2 mg/dL
[5]; LETO rats, regardless of whether or not 1-kestose was taken
  Blood glucose levels compared among groups: equivalent blood glucose levels
